Measurements from patent publication US9469613B2, “(N-(cyanomethyl)-4-(2-(4-morpholinophenylamino)pyrimidin-4-yl)benzamide” (Gilead Sciences, Inc., priority 2014, dated 2016).
Structures can show the parent of a compound that is named as a salt. One block for each molecule: values may come before it.

Columns and labels:
[1] = Solid form hygroscopicity and stability; type: physicochemical; settings: conditions suitable for manufacturing and/or storage
Protocol: Dynamic Vapor Sorption: The hygroscopicity of N-(cyanomethyl)-4-(2-(4-morpholinophenylamino)pyrimidin-4-yl)benzamide dihydrochloride monohydrate Form II was evaluated at room temperature using a dynamic vapor sorption (DVS) instrument (TGA Q5000 TA Instruments, New Castle, Del.). Water adsorption and desorption were studied as a function of relative humidity (RH) over the range of 0 to 90% at room temperature. The humidity in the chamber was increased from the initial level 50% RH) to 60% RH and held until the solid and atmosphere reached equilibration. The equilibrium test was continued until passed or expired after 10 hours. At this point, RH was raised 10% higher and the process was repeated until 90% RH was reached and equilibrated. During this period, the water sorption was monitored. For desorption, the relative humidity was decreased in a similar manner to measure a full sorption/desorption cycle. All experiments were operated in dm/dt mode (mass variation over time) to determine the equilibration endpoint. Approximately 4 mg of solid CYT-0387 was used. Data analysis was conducted using Universal Analysis 2000 Version 4.7A (TA Instruments, New Castle, Del., USA).

[2] = Stability of 100 mg tablet formulation with different propyl gallate levels; type: physicochemical; settings: for Total Degradation: 100 mg tablet, 40° C./75% RH
Protocol: Next, the stability of 100 mg tablet formulation comprising CYT-0387 Form II was examined in the presence of 0%, 0.2%, 0.5%, or 1.0% propyl gallate at 25° C./60% RH (relative humidity) or 40° C./75% RH for up to 6 months. The degradation profiles were determined at month 0, 1, 3, and 6.

TGFBR1 [3] = target: T1, TGFBR1 (Homo sapiens (Human), UniProt P36897); assay: In vitro enzyme inhibition assay (LanthaScreen); type: biochemical; settings: TGFBR1, n = 3
TGFBR1 [4] = target: T1, TGFBR1; assay: Biochemical binding assay (DiscoveRx)
[5] = system: hepcidin production in HepG2 cells; assay: BMP6-mediated hepcidin induction in HepG2 cells (qRT-PCR); type: cell-based; settings: for hepcidin fold-change induction (normalized percentage): HepG2, 10 ng/mL BMP6 6 hours, 100% = vehicle
Source text: This study characterized the effect of CYT-0387 on hepcidin production in HepG2 cells, a hepatocellular carcinoma cell line. Bone morphogenic proteins (BMPs) is shown to be involved in the transcriptional induction of hepcidin in hepatocytes by facilitating the association of constitutively active Type-II BMP receptor kinases (BMPR-kinase) with Type-I BMPR-kinase (Andriopoulos, et al. Nat Genet, 2009. 41(4): p482-7; Zhao, et al., J Clin Invest, 2013. 123(6): p2337-43).
HepG2 cells were preincubated for 2 hours with CYT-0387 (ranging from 0 μM to 10 μM) in the presence of 1% FBS then stimulated for 6 hours with 10 ng/mL of BMP6. Total RNA was isolated from the cells and analyzed for the levels of hepcidin by qRT-PCR. GUSB (glucuronidase, beta) was used as a house keeping control to normalize the levels measured by qRT-PCR. The percentage of hepcidin fold-change induction was calculated (100% is equal to hepcidin induction in vehicle treated cells) and summarized in Table 9.

ALK3 (BMPR1a) = ALK3 (BMPR1a) (Homo sapiens (Human), UniProt P36894); assay: Biochemical binding assay (DiscoveRx)
Protocol: (§1) In addition, biochemical binding assays (DiscoveRx) and in vitro enzyme inhibition assays (LanthaScreen, Life Technologies) were conducted to determine the binding affinity and inhibition activities of CYT-0387 to Type-I BMPR-kinases (ALK2, ALK3, and ALK6) were conducted. Transforming growth factor beta receptor 1 (TGFBR1, ALK5) was used as a control to determine the selectivity to Type-I BMPR-kinases.

ALK2 (Acvr1) = ALK2 (Acvr1) (Homo sapiens (Human), UniProt Q04771); assay: Biochemical binding assay (DiscoveRx)
Protocol: as §1

ALK6 (BMPR1B) = ALK6 (BMPR1B) (Homo sapiens (Human), UniProt O00238); assay: Biochemical binding assay (DiscoveRx)
Protocol: as §1

[6] = system: hyperproliferative diseases (PV, ET, PMF), myelofibrosis; settings: cited from earlier work
[7] = Mass balance/recovery, metabolite profile, pharmacokinetics and safety of radiolabeled CYT-0387; type: in vivo, human
Protocol: CYT-0387 is a selective small molecule inhibitor of Janus kinase 1 and 2 (JAK1/JAK2) currently under investigation to treat myelofibrosis. This study evaluated the mass balance/recovery, metabolite profile, pharmacokinetics, and safety of radiolabeled CYT-0387 in humans.
Six healthy individuals (subjects) received a single oral dose of 200 mg CYT-0387 containing ˜100 μCi of [^14C]-CYT-0387. Blood samples were collected up to 21 days or until plasma radioactivity in 2 consecutive samples was below detection limit or urine and feces sampling was discontinued. Urine/feces samples were collected up to 21 days or until ≧90% administered dose was recovered in feces and urine and radioactivity in 2 consecutive sampling intervals were ≦1% administered dose. Plasma concentrations of CYT-0387 and metabolites were measured using LC-MS/MS and total radioactivity assessed by liquid scintillation counting. Metabolite profiling was performed in select urine, feces, and plasma samples. Safety assessments were performed throughout the study.

[8] = single oral dose 200 mg, healthy subjects

T1 sequence (P36897 34-503): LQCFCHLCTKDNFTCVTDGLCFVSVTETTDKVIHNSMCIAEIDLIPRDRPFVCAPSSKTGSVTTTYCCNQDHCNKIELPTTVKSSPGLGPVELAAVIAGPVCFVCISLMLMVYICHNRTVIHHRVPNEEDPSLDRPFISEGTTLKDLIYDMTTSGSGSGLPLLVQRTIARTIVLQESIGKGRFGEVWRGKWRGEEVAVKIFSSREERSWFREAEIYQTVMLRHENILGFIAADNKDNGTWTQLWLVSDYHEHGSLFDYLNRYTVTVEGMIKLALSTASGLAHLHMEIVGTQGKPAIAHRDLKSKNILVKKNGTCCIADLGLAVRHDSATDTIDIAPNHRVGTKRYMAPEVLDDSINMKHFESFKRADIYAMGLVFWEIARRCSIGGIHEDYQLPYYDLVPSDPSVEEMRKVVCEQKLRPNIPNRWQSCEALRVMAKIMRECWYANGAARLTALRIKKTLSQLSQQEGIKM
Sequence of ALK6 (BMPR1B) (O00238 14-502): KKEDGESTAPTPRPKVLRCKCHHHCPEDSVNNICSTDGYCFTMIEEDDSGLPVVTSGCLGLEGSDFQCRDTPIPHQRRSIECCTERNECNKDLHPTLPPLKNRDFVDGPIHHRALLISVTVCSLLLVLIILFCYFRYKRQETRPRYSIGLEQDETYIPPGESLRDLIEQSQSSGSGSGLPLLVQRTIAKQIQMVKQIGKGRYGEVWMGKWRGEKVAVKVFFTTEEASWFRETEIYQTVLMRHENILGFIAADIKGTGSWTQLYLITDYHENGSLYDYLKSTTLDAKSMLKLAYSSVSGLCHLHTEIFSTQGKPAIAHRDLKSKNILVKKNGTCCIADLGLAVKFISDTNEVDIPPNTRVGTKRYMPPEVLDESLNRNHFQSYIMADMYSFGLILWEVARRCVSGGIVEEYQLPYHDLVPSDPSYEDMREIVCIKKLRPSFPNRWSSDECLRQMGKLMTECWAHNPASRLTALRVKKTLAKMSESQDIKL
Sequence of ALK3 (BMPR1a) (P36894 24-532): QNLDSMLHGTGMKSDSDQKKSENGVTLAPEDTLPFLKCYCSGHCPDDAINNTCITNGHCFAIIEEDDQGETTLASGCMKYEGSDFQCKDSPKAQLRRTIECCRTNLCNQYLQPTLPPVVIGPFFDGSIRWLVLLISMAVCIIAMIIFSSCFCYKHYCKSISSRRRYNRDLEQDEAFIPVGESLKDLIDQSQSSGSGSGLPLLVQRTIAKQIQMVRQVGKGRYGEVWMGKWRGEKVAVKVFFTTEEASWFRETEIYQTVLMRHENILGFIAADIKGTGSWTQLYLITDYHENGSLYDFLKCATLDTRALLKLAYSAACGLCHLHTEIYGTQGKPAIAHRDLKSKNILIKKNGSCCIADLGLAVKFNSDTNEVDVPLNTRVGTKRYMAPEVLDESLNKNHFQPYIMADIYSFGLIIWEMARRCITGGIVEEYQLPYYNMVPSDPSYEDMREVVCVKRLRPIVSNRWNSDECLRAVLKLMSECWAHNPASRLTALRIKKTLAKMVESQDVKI
Sequence of ALK2 (Acvr1) (Q04771 21-509): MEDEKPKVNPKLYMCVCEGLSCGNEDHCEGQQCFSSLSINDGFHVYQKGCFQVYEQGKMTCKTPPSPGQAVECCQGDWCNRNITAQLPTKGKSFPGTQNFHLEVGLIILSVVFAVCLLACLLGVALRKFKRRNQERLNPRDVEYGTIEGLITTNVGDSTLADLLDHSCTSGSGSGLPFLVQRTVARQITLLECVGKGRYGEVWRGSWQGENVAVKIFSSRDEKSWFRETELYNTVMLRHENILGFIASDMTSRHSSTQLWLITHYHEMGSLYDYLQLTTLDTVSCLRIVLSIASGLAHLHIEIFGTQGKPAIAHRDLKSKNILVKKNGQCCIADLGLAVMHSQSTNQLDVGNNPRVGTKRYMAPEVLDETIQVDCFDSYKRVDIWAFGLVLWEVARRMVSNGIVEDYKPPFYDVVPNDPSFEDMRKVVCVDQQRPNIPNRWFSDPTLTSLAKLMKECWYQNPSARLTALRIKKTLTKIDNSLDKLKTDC

thermodynamic stability of the dihydrochloride salt form [1]: thermodynamically stable form | Total Degradation ([2]; propyl gallate 0%, month 0): 0.10% | Total Degradation ([2]; propyl gallate 0%, month 1): 0.68% | Total Degradation ([2]; propyl gallate 0%, month 3): 1.01% | Total Degradation ([2]; propyl gallate 0%, month 6): 1.28% | Total Degradation ([2]; propyl gallate 0.2%, month 0): 0.10% | Total Degradation ([2]; propyl gallate 0.2%, month 1): 0.34% | Total Degradation ([2]; propyl gallate 0.2%, month 3): 0.67% | Total Degradation ([2]; propyl gallate 0.2%, month 6): 0.80% | Total Degradation ([2]; propyl gallate 0.5%, month 0): 0.11% | Total Degradation ([2]; propyl gallate 0.5%, month 1): 0.39% | Total Degradation ([2]; propyl gallate 0.5%, month 3): 0.67% | Total Degradation ([2]; propyl gallate 0.5%, month 6): 0.95% | Total Degradation ([2]; propyl gallate 1.0%, month 0): 0.14% | Total Degradation ([2]; propyl gallate 1.0%, month 1): 0.44% | Total Degradation ([2]; propyl gallate 1.0%, month 3): 0.87% | Total Degradation ([2]; propyl gallate 1.0%, month 6): 1.34% | degradation in 100 mg tablet ([2]; 25° C./60% RH, propyl gallate at 0.2%, 0.5%, and 1.0% (data not shown)): reduced
Structure (SMILES): N#CCNC(=O)c1ccc(-c2ccnc(Nc3ccc(N4CCOCC4)cc3)n2)cc1 [CYT-0387 Form II, N-(cyanomethyl)-4-(2-(4-morpholinophenylamino)pyrimidin-4-yl)benzamide dihydrochloride monohydrate Form II]

IC50 (TGFBR1 [3]): 205 nM | Kd (TGFBR1 [4]): 670 nM | Kd (ALK3 (BMPR1a)): 1000 nM | Kd (ALK2 (Acvr1)): 25 nM | Kd (ALK6 (BMPR1B)): 19 nM
Structure (SMILES): N#CCNC(=O)c1ccc(-c2ccnc(Nc3ccc(N4CCOCC4)cc3)n2)cc1 [CYT-0387, N-(cyanomethyl)-4-(2-(4-morpholinophenylamino)pyrimidin-4-yl)benzamide]
effect on BMP6-mediated hepcidin induction ([5]; 0 μM to 10 μM, HepG2): dose-dependent inhibition | hepcidin fold-change induction (normalized percentage) ([5]; 0.020 μM): 115% | hepcidin fold-change induction (normalized percentage) ([5]; 0.039 μM): 91% | hepcidin fold-change induction (normalized percentage) ([5]; 0.078 μM): 74% | hepcidin fold-change induction (normalized percentage) ([5]; 0.156 μM): 86% | hepcidin fold-change induction (normalized percentage) ([5]; 0.313 μM): 89% | hepcidin fold-change induction (normalized percentage) ([5]; 0.625 μM): 45% | hepcidin fold-change induction (normalized percentage) ([5]; 1.25 μM): 28% | hepcidin fold-change induction (normalized percentage) ([5]; 2.5 μM): 6% | hepcidin fold-change induction (normalized percentage) ([5]; 5.0 μM): −4% | hepcidin fold-change induction (normalized percentage) ([5]; 10.0 μM): −3% | efficacy in treating hyperproliferative diseases (PV, ET, PMF) ([6]; clinical studies): effective | anemia and/or spleen responses ([6]; patients having myelofibrosis): improvement | excreted in feces ([7]; feces): 12.6 % of the dose | recovery of radioactivity in feces ([7]; feces): 69.3% | overall recovery of radioactivity ([7]; feces and urine): 96.7% | share of circulating radioactivity ([7]; plasma): 17.3% | time of maximum concentration of drug-derived radioactivity in plasma ([7]; postdose, single oral 200 mg [14C]-CYT-0387): 2.5 h | most frequently reported AEs [7, 8]: dizziness, headache, and nausea | serious or severe adverse events [7, 8]: No Grade 3 or 4 AEs, SAEs, or AEs leading to study discontinuation | tolerability [7, 8]: well tolerated | recovery of radioactivity in urine ([7]; urine): 27.5%
